# Where two headings read alike, the source gives them in different places.
# Experiments:
# [1] = target: T1, CDK2/cyclin E (Homo sapiens, UniProt P24941); test: CDK2/Cyclin E kinase assay (GST-Rb phosphorylation, radiolabelled ATP); assay type: biochemical;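 further: enzyme was His-tagged CDK2/cyclin E co-expressed in baculovirus-infected Sf9 insect cells and purified over a metal-chelate column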
# T1 construct: His; made in house; host or cells: Sf9 insect cells (baculovirus)
# [2] = test system: HT29; test: 72-h MTT cellular proliferation assay, HT29; assay type: cell-based; conditions: HT-29; human tumour cell line HT29, 72-h MTT; read-out: Cytotoxicity (IC50, μM) HT29
# Excerpt: (§1) Selected compounds from the above examples were subjected to a standard cellular proliferation assay using a range of different human tumour cell lines.
# [3] = test system: A549; test: 72-h MTT cellular proliferation assay, A549; assay type: cell-based; conditions: human tumour cell line A549, 72-h MTT; read-out: Cytotoxicity (IC50, μM) A549
# Excerpt: as §1
# [4] = test system: human tumour cell lines; test: cell-based anti-proliferative assays
# Excerpt: These assays, including methods for their performance, are described in more detail in Example 3. Using such cell line and enzymes assays it may be determined whether a compound is anti-proliferative in the context of the present invention.
# Selected compounds from the above examples were subjected to a standard cellular proliferation assay using a range of different human tumour cell lines. Standard 72-h MTT (thiazolyl blue; 3-[4,5-dimethylthiazol-2-yl]-2,5-diphenyltetrazolium bromide) assays were performed (Haselsberger, K.; Peterson, D. C.; Thomas, D. G.; Darling, J. L. Anti Cancer Drugs 1996, 7, 331–8; Loveland, B. E.; Johns, T. G.; Mackay, I. R.; Vaillant, F.; Wang, Z. X.; Hertzog, P. J. Biochemistry International 1992, 27, 501–10). Human tumour cell lines were obtained from the ATCC (American Type Culture Collection, 10801 University Boulevard, Manessas, Va. 20110-2209, USA).
# [5] = test system: Saos-2; test: 72-h MTT cellular proliferation assay, Saos-2; assay type: cell-based; conditions: human tumour cell line Saos-2, 72-h MTT; read-out: Cytotoxicity (IC50, μM) Saos-2
# Excerpt: as §1
# [6] = bound stated, (±0.05), read-out: IC50 for cdk2/cyclinE
melting point [°C],"IC50 [1, 6] [nM]",IC50 ([1]; read-out: CDK2/cyclin E (IC50)) [nM],Structure (SMILES),IC50 [2] [µM],IC50 [3] [µM],anti-proliferative activity in cell-based assays [4],IC50 [5] [µM]
219 to 223,< 5000,1700,"Cc1c[nH]c(C)c1-c1ccnc(Nc2ccc(Cl)cc2)n1 [Compound 5, (4-Chloro-phenyl)-[4-(2,4-dimethyl-1H-pyrrol-3-yl)-pyrimidin-2-yl]-amine]",–,–,–,–
153.3 to 156.8,< 5000,1300,"Cc1c[nH]c(C)c1-c1ccnc(Nc2cc(F)cc(F)c2)n1 [Compound 6, (3,5-Difluoro-phenyl)-[4-(2,4-dimethyl-1H-pyrrol-3-yl)-pyrimidin-2-yl]-amine]",–,–,–,–
189.5 to 193.4,< 5000,2900,"Cc1c[nH]c(C)c1-c1ccnc(Nc2ccc(O)cc2)n1 [Compound 7, 4-[4-(2,4-Dimethyl-1H-pyrrol-3-yl)-pyrimidin-2-ylamino]-phenol]",–,–,–,–
169 to 174.6,< 5000,1400,"Cc1c[nH]c(C)c1-c1ccnc(Nc2cccc(O)c2)n1 [Compound 8, 3-[4-(2,4-Dimethyl-1H-pyrrol-3-yl)-pyrimidin-2-ylamino]-phenol]",–,–,–,–
158.5 to 159.7,–,–,"Cc1c[nH]c(C)c1-c1ccnc(Nc2ccc(Cl)cc2Cl)n1 [Compound 10, (2,4-Dichloro-phenyl)-[4-(2,4-dimethyl-1H-pyrrol-3-yl)-pyrimidin-2-yl]-amine]",–,–,–,–
187.7 to 190.7,–,–,"Cc1c[nH]c(C)c1-c1ccnc(Nc2ccc(Cl)c(C(F)(F)F)c2)n1 [Compound 11, (4-Chloro-3-trifluoromethyl-phenyl)-[4-(2,4-dimethyl-1H-pyrrol-3-yl)-pyrimidin-2-yl]-amine]",–,–,–,–
165.6 to 167.9,< 1000,900,"Cc1c[nH]c(C)c1-c1ccnc(Nc2ccc(C(F)(F)F)cc2)n1 [Compound 12, [4-(2,4-Dimethyl-1H-pyrrol-3-yl)-pyrimidin-2-yl]-(4-trifluoromethyl-phenyl)-amine]",3.1,15,particularly effective anti-proliferative agents,17
152.7 to 154.3,–,–,"Cc1c[nH]c(C)c1-c1ccnc(Nc2cccc(C(F)(F)F)c2)n1 [Compound 13, [4-(2,4-Dimethyl-1H-pyrrol-3-yl)-pyrimidin-2-yl]-(3-trifluoromethyl-phenyl)-amine]",–,–,–,–
185 to 187.4,< 5000,1520,"Cc1c[nH]c(C)c1-c1ccnc(Nc2ccc(I)c(Cl)c2)n1 [Compound 16, (3-Chloro-4-iodo-phenyl)-[4-(2,4-dimethyl-1H-pyrrol-3-yl)-pyrimidin-2-yl]-amine]",–,4.39,particularly effective anti-proliferative agents,–
200 to 202,< 5000,1730,"Cc1c[nH]c(C)c1-c1ccnc(Nc2ccc(I)c(F)c2)n1 [Compound 17, [4-(2,4-Dimethyl-1H-pyrrol-3-yl)-pyrimidin-2-yl]-(3-fluoro-4-iodo-phenyl)-amine]",–,–,–,–
195.6 to 198.9,< 500,–,"Cc1[nH]c(C#N)c(C)c1-c1ccnc(Nc2ccc(C(F)(F)F)cc2)n1 [Compound 34, 3,5-Dimethyl-4-[2-(4-trifluoromethyl-phenylamino)-pyrimidin-4-yl]-H-pyrrole-2-carbonitrile]",0.95,3.64,particularly effective anti-proliferative agents,3.4
189.5 to 191.7,< 1000,–,"Cc1ccc(Nc2nccc(-c3c(C)[nH]c(C#N)c3C)n2)cc1I [Compound 38, 4-[2-(3-Iodo-4-methyl-phenylamino)-pyrimidin-4-yl]-3,5-dimethyl-1H-pyrrole-2-carbonitrile]",0.72,3.6,particularly effective anti-proliferative agents,3.12
194.2 to 197.9,< 1000,1020,"Cc1cc(Nc2nccc(-c3c(C)[nH]c(C#N)c3C)n2)ccc1Cl [Compound 39, 4-[2-(4-Chloro-3-methyl-phenylamino)-pyrimidin-4-yl]-3,5-dimethyl-1H-pyrrole-2-carbonitrile]",3.27,4.37,particularly effective anti-proliferative agents,5.88
177.7 to 179.9,< 1000,–,"Cc1ccc(Nc2nccc(-c3c(C)[nH]c(C#N)c3C)n2)cc1F [Compound 42, 4-[2-(3-Fluoro-4-methyl-phenylamino)-pyrimidin-4-yl]-3,5-dimethyl-1H-pyrrole-2-carbonitrile]",0.28,1.49,particularly effective anti-proliferative agents,2.23
190.6 to 193.7,< 1000,–,"Cc1[nH]c(C#N)c(C)c1-c1ccnc(Nc2ccc(N(C)C)cc2)n1 [Compound 43, 4-[2-(4-Dimethylamino-phenylamino)-pyrimidin-4-yl]-3,5-dimethyl-1H-pyrrole-2-carbonitrile]",0.17,1.41,particularly effective anti-proliferative agents,1.5
265 to 268,< 1000,–,"Cc1[nH]c([N+](=O)[O-])c(C)c1-c1ccnc(Nc2ccc(N(C)C)cc2)n1 [Compound 48, N-[4-(2,4-Dimethyl-5-nitro-1H-pyrrol-3-yl)-pyrimidin-2-yl]-N′,N′-dimethyl-benzene-1,4-diamine]",0.61,3.05,particularly effective anti-proliferative agents,2.65
198.1 to 203,< 500,–,"Cc1[nH]c(Br)c(C)c1-c1ccnc(Nc2cccc([N+](=O)[O-])c2)n1 [Compound 51, [4-(5-Bromo-2,4-dimethyl-1H-pyrrol-3-yl)-pyrimidin-2-yl]-(3-nitro-phenyl)-amine]",2.92,7.56,particularly effective anti-proliferative agents,12.4
–,< 1000,870,"CCN(CC)Cc1[nH]c(C)c(-c2ccnc(Nc3ccc(F)cc3)n2)c1C [Compound 53, [4-(5-Diethylaminomethyl-2,4-dimethyl-1H-pyrrol-3-yl)-pyrimidin-2-yl]-(4-fluoro-phenyl)-amine]",1.31,0.97,particularly effective anti-proliferative agents,1.61
88.4 to 91.6,< 500,–,"Cc1[nH]c(CN(C)C)c(C)c1-c1ccnc(Nc2ccc(F)cc2)n1 [Compound 54, [4-(5-Dimethylaminomethyl-2,4-dimethyl-1H-pyrrol-3-yl)-pyrimidin-2-yl]-(4-fluoro-phenyl)-amine]",3.2,2.76,particularly effective anti-proliferative agents,0.7
94.7 to 97.6,< 1000,870,"Cc1[nH]c(CN2CCOCC2)c(C)c1-c1ccnc(Nc2ccc(F)cc2)n1 [Compound 55, [4-(2,4-Dimethyl-5-morpholin-4-ylmethyl-1H-pyrrol-3-yl)-pyrimidin-2-yl]-(4-fluoro-phenyl)-amine]",–,–,–,–
–,< 5000,1510,"Cc1[nH]c(CN2CCN(C)CC2)c(C)c1-c1ccnc(Nc2ccc(F)cc2)n1 [Compound 56, {4-[2,4-Dimethyl-5-(4-methyl-piperazin-1-ylmethyl)-1H-pyrrol-3-yl]-pyrimidin-2-yl}-(4-fluoro-phenyl)-amine]",5.09,13.8,particularly effective anti-proliferative agents,14.2

Structure (SMILES),melting point [°C],"IC50 [1, 6] [nM]",IC50 ([1]; read-out: CDK2/cyclin E (IC50)) [nM],IC50 [2] [µM],IC50 [3] [µM],anti-proliferative activity in cell-based assays [4],IC50 [5] [µM]
"Cc1[nH]c(C#N)c(C)c1-c1ccnc(Nc2cccc(O)c2)n1 [Compound 36, 4-[2-(3-Hydroxy-phenylamino)-pyrimidin-4-yl]-3,5-dimethyl-1H-pyrrole-2-carbonitrile]",–,< 500,–,–,–,particularly effective anti-proliferative agents,0.9

# Reference: patent publication US7262202B2, “Inhibitors of cyclin dependent kinases as anti-cancer agent” (Cyclacel Limited, priority 2001, dated 2007)
